Results from patent US20100160349A1, “TRIAZOLOPYRIMIDINE DERIVATIVES AS GLYCOGEN SYNTHASE KINASE 3 INHIBITORS” (priority 2005, published 2010).
Where a name gives a salt, the structure may show the parent alone.

Key:
GSK3β = GSK3β (Homo sapiens, UniProt P49841); assay: GSK3beta assay (SPA, biotinylated phosphorylated CREB peptide, ATP-P33); type: biochemical; conditions: −log IC50 (M); reported as ranges; 5.7 ng/μl GSK3β, 1 μM ATP, room temperature, one hour; read-out: pIC50 (GSK3beta) (converted)
Experimental: (§1) GSK3beta assays were performed at room temperature in a 100 μl reaction volume of 25 mM Tris (pH 7.4) containing 10 mM MgCl2.6H2O, 1 mM DTT, 0.1 mg/ml BSA, 5% glycerol and containing 5.7 ng/μl GSK3β, 5 μM biotinylated phosphorylated CREB peptide, 1 μM ATP, 0.85 μCi/ml ATP-P^33 and a suitable amount of a test compound of formula (I). After one hour, the reaction was terminated by adding 70 μl of Stop mix (0.1 mM ATP, 5 mg/ml streptavidin coated PVT SPA bead pH 11.0). The beads to which the phosphorylated CREB peptide is attached were allowed to settle overnight and the radioactivity of the beads was counted in a microtiterplate scintillation counter and compared with the results obtained in a control experiment (without the presence of a test compound) in order to determine the percentage of GSK3β inhibition. The IC50 value, i.e. the concentration (M) of the test compound at which 50% of GSK3β is inhibited, was calculated from the dose response curve obtained by performing the above-described GSK3β assay in the presence of different amounts of the test compound.

GSK3alpha = GSK3alpha (Homo sapiens, UniProt P49840); assay: GSK3alpha assay (same way as the GSK3beta assay); type: biochemical; conditions: −log IC50 (M); reported as ranges; 0.25 ng/μl GSK3alpha, 1 μM ATP, room temperature, one hour; read-out: pIC50 (GSK3alpha) (converted)
Experimental: as §1
The GSK3alpha assay was performed in the same way as described above for the GSK3beta assay except for the concentration of GSK3alpha which is 0.25 ng/μl.

Sequence of GSK3β (P49841 whole entry, species assumed): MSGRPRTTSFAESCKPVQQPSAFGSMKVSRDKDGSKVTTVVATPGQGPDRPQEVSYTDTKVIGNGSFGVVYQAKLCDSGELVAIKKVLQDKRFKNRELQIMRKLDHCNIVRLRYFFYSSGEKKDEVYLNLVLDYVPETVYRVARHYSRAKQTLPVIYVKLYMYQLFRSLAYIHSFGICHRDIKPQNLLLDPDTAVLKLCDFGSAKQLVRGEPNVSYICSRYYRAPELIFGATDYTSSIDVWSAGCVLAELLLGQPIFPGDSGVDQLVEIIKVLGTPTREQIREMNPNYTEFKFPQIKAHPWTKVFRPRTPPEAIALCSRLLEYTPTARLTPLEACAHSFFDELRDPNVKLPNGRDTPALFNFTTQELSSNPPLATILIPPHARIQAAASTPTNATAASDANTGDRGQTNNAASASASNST
Sequence of GSK3alpha (P49840 whole entry, species assumed): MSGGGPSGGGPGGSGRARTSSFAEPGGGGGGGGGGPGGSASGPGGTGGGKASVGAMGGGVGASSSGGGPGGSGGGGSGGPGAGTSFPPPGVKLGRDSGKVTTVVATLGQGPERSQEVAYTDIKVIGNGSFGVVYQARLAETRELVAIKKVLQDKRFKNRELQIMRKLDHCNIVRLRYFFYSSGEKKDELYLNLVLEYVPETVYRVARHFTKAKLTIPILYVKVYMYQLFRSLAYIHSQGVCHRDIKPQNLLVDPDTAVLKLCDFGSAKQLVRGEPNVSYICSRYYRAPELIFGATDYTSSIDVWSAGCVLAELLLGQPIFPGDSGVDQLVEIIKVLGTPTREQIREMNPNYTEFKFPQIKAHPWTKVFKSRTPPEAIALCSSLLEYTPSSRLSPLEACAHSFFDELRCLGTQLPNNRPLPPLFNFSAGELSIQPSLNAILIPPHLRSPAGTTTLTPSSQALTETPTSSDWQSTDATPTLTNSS

melting point [°C]	IC50 (GSK3β) [M]	IC50 (GSK3alpha) [M]	Compound
> 260	–	–	NCc1cccc(-n2nnc3cnc(Nc4ccccc4)nc32)c1 (as salt: HCl) [Co. No. 9]
218 to 222	< 1e-08	< 1e-08	N#CCc1cccc(-n2nnc3cnc(Nc4ccccc4)nc32)c1 [Co. No. 1]
143	< 1e-08	< 1e-08	COCCOCc1cccc(-n2nnc3cnc(Nc4ccccc4)nc32)c1 [Co. No. 2]
164	1e-08 to 1e-07	< 1e-08	COCCOc1cccc(-n2nnc3cnc(Nc4ccccc4)nc32)c1 [Co. No. 3]
194 to 198	1e-08 to 1e-07	1e-08 to 1e-07	c1ccc(Nc2ncc3nnn(-c4ccccc4)c3n2)cc1 [Co. No. 4]
196 to 198	< 1e-08	< 1e-08	CC(C)(C)OC(=O)NCc1cccc(-n2nnc3cnc(Nc4ccccc4)nc32)c1 [Co. No. 5]
–	> 1e-07	> 1e-07	O=C(NCc1cccc(-n2nnc3cnc(Nc4ccccc4)nc32)c1)C12CC3CC(CC(C3)C1)C2 [Co. No. 6]
–	< 1e-08	< 1e-08	CC(C)CC(=O)NCc1cccc(-n2nnc3cnc(Nc4ccccc4)nc32)c1 [Co. No. 7]
241	> 1e-07	1e-08 to 1e-07	O=C(O)Cc1cccc(-n2nnc3cnc(Nc4ccccc4)nc32)c1 [Co. No. 8]
–	1e-08 to 1e-07	< 1e-08	NCc1cccc(-n2nnc3cnc(Nc4ccccc4)nc32)c1 [Co. No. 9]
–	< 1e-08	< 1e-08	OCCc1cccc(-n2nnc3cnc(Nc4ccccc4)nc32)c1 [Co. No. 10]
–	< 1e-08	< 1e-08	COCc1cccc(-n2nnc3cnc(Nc4ccccc4)nc32)c1 [Co. No. 11]
–	≤ 1e-08	< 1e-08	CC(=O)NCc1cccc(-n2nnc3cnc(Nc4ccccc4)nc32)c1 [Co. No. 12]
–	–	1e-08 to 1e-07	Fc1cccc(-n2nnc3cnc(Nc4ccccc4)nc32)c1 [Co. No. 13]
–	–	> 1e-06	O=C(NCc1cccc(-n2nnc3cnc(Nc4ccccc4)nc32)c1)C1CC1 [Co. No. 14]
–	< 1e-08	< 1e-08	CCOC(=O)NCc1cccc(-n2nnc3cnc(Nc4ccccc4)nc32)c1 [Co. No. 15]
–	1e-08 to 1e-07	1e-08 to 1e-07	OCCc1ccc(-n2nnc3cnc(Nc4ccccc4)nc32)cc1 [Co. No. 16]
–	< 1e-08	< 1e-08	NC(=O)Cc1cccc(-n2nnc3cnc(Nc4ccccc4)nc32)c1 [Co. No. 17]
